From patent publication US5756531A, “Iminoxy derivatives of indole and indene compounds as inhibitors of prostaglandin biosynthesis” (Abbott Laboratories, priority 1996, dated 1998)

How the values were obtained:
[1] = target: T1, recombinant human PGHS-1 (prostaglandin hydroperoxidase -1, cyclooxygenase-1) (Homo sapiens, UniProt P23219); assay: Recombinant Human PGHS-1 enzyme assay (PGE2 production by EIA); assay type: biochemical; details: 60 min preincubation; 10 μM arachidonic acid
T1 construct: made in house; host or cells: baculovirus/Sf9 insect cells (microsomes)
Experimental: 1. recombinant human prostaglandin hydroperoxidase -1 (cyclooxygenase-1)
(§1) Compound dissolved in DMSO (3.3% v/v) was preincubated with microsomes from recombinant human PGHS-1 or PGHS-2 expressed in the baculovirus/Sf9 cell system (Gierse, J. K., Hauser, S. D., Creely, D. P., Koboldt, C., Rangwala, S., H., Isakson, P. C., and Seibert, K. Expression and selective inhibition of the constituitive and inducible forms of cyclooxygenase Biochem J. 1995, 305: 479.), together with the cofactors phenol (2 mM) and hematin (1 μM) for 60 minutes prior to the addition of 10 μM arachidonic acid. The reaction was allowed to run for 2.5 minutes at room temperature prior to quenching with HCl and neutralization with NaOH. PGE2 production in the presence and absence of the drug was determined by EIA analysis.
(§2) EIA reagents for prostaglandin determination were purchased from Perseptive Diagnostics, Cambridge, Mass. PGE2 levels in lavage fluids were determined after the samples were dried under nitrogen and reconstituted with assay buffer. PGE2 levels in enzyme assays or cell culture media were measured against standards prepared in the same milieu. The immunoassays were conducted as recommended by the manufacturer. The EIA was conducted in 96 well microtiter plates (Nunc Roskilde, Denmark) and optical density measured using a microplate reader (Vmax, Molecular Devices Corp., Menlo Park, Calif.).

[2] = target: T2, recombinant human PGHS-2 (prostaglandin hydroperoxidase -2, cyclooxygenase-2) (Homo sapiens, UniProt P35354); assay: Recombinant Human PGHS-2 enzyme assay (PGE2 production by EIA); assay type: biochemical; details: 60 min preincubation; 10 μM arachidonic acid
T2 construct: made in house; host or cells: baculovirus/Sf9 insect cells (microsomes)
T2 sequence (P35354 18-604): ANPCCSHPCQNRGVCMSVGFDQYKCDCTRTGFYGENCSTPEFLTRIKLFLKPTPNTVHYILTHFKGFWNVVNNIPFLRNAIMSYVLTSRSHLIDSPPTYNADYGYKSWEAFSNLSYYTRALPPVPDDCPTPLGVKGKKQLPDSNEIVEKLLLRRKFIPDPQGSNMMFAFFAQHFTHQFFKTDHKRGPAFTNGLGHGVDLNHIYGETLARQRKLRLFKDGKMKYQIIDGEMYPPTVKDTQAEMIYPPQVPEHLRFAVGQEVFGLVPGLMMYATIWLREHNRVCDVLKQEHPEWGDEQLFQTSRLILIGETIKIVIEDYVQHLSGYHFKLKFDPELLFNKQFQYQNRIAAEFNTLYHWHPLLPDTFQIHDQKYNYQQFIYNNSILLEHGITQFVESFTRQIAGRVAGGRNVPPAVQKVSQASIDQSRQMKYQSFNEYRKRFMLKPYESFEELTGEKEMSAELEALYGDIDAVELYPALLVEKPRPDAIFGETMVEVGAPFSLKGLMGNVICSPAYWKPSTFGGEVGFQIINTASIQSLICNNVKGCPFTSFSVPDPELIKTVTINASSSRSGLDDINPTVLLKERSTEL
Experimental: 2. recombinant human prostaglandin hydroperoxidase -2 (cyclooxygenase-2)
as §1, §2

[3] = test system: PGHS-2; details: in words; cited from earlier work
[4] = test system: PGHS-1; details: in words; cited from earlier work

T1 sequence (P23219 24-599): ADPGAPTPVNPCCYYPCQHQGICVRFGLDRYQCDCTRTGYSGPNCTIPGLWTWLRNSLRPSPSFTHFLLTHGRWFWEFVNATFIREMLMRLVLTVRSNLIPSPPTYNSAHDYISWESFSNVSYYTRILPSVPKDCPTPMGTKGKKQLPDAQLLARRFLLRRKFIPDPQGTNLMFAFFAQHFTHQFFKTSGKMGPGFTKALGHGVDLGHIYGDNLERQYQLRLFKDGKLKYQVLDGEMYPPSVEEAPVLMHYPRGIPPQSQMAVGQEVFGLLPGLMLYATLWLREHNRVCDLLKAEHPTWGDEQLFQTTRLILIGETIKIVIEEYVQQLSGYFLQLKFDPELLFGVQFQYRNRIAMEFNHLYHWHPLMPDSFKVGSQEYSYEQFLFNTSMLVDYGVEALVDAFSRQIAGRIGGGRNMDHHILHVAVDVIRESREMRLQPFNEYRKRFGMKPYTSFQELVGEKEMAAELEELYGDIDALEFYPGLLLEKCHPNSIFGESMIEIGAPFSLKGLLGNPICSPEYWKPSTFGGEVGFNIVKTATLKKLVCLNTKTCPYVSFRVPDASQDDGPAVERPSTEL

IC50 [1]	IC50 [2]	Compound	inhibition of PGHS-2 [3]	inhibition of PGHS-1 [4]
52 µM	0.07 µM	COc1ccc2c(c1)c(CCON=C(C)/C=C/C(=O)O)c(C)n2C(=O)c1ccc(Cl)cc1 [Example 6, 4-oxopent-2-enoic acid-2-O-[2-(4-chlorobenzoyl-5-methoxy-2-methylindol-3-yl)ethyl] oxime]	–	–
24 µM	0.06 µM	COc1ccc2c(c1)c(CCON=CC(O)CO)c(C)n2C(=O)c1ccc(Cl)cc1 (stereo not drawn) [Example 7, glyceraldehyde-O-[2-(1-(4-chlorobenzoyl)-5-methoxy-2-methylindol-3-yl)ethyl] oxime]	–	–
–	–	COc1ccc2c(c1)c(CC(=O)O)c(C)n2C(=O)c1ccc(Cl)cc1 [Indomethacin, indomethacin]	inhibit both PGHS-1 and PGHS-2	inhibit both PGHS-1 and PGHS-2
–	–	CC(C)Cc1ccc(C(C)C(=O)O)cc1 (stereo not drawn) [ibuprofen]	inhibit both isozymes	inhibit both isozymes
–	–	COc1ccc2cc([C@H](C)C(=O)O)ccc2c1 [naproxen]	inhibit both isozymes	inhibit both isozymes
–	–	CC1=C(CC(=O)O)c2cc(F)ccc2/C1=C\c1ccc([S+](C)[O-])cc1 (stereo not drawn) [sulindac]	inhibit both PGHS-1 and PGHS-2	inhibit both PGHS-1 and PGHS-2
